Measured values taken from paper PMC4786873, “Spacer-free BODIPY fluorogens in antimicrobial peptides for direct imaging of fungal infection in human tissue” (Nature Communications, 2016).
Entries after “also recorded” stand apart in the source; their conditions may differ. Where two headings read alike, the source gives them in different places. Starred links: 1 amine or outer side, 2 acyl side, 3 side chain; linkers in the order of their positions; H or OH if unused. Non-standard residues stand in square brackets, D forms with d. Residues, ends and D or L forms follow the SMILES beside them. No end group written: not given here. X1 = CC1=CC(C)=[N+]2C1=C(c1cccc(-c3[nH]c4ccccc4c3C[C@H](N[*:1])C(=O)[*:2])c1)c1c(C)cc(C)n1[B-]2(F)F

Key:
[1] = system: Aspergillus fumigatus (strain CEA10); assay type: cell-based; details: for activity / affinity in A. fumigatus, in words: values only in Supplementary Fig. 8 (picture not shown), 9 compared with linear PAF26 (4)
Protocol: The A. fumigatus (strain CEA10, source: FGSC A1163) was grown on Vogel's medium at 37 °C for 5 days before the spores (conidia) were harvested. Peptides 4–8 were incubated at different concentrations with A. fumigatus conidia to reach a final volume of 100 μl per well. The final conidia concentration was 5 × 10^5 cells ml^−1 in 10% Vogel's medium. After 24 h incubation at 37 °C in 96 well-plates, fungal growth was determined by measuring OD610nm in a spectrophotometer. IC50 values were determined using four parameter logistic regression. Data is represented as means±s.e.m from at least three independent experiments with n=3.
Antimicrobial and ha emolysis assays.
Supplementary Figure 4. Determination of IC50 values of BODIPY-labelled peptides 5- 8 in A. fumigatus. Cell viability plots and non- linear regressions for peptides 5 (A), 6 (B), 7 (C) and 8 (D).
Peptides were incubated at different concentrations with A. fumigatus conidia to r each a final volum e of 100 μ L per well. T he final conidia concentration was 5 × 10^5 cells/m L in 10% Vogel’s m edium . After 24 h incubation at 37 °C in 96 well-plates, fungal growth was determ ined by m easuring the optical densit y at 610 nm . The IC50 values were determ ined using four param eter logistic regression. Data represented as m eans ± s.e.m (n=3).
(§1) (1 picture or pasted object on this page, not shown here)

[2] = system: Pseudomonas aeruginosa (ATCC 47085); test: In vitro antimicrobial activity (bacterial cell viability, OD600); assay type: cell-based; details: 16 h incubation with peptide at its respective IC50 concentration (A. fumigatus), OD600 nm, n=3
Protocol: (§2) P. aeruginosa (ATCC 47085), K. pneumoniae (ATCC BAA1706) and E. coli (ATCC 25922) were grown on Lysogeny Broth (LB) agar plates and stored at 4 °C. For assays, a single colony of bacteria was taken into 10 mL liquid broth and incubated at 37 °C for 16 h. Cultures were centrifuged at 4,000 r.p.m. for 5 min and the pellet was re-suspended in 1 ml of fresh PBS and washed three times. Cultures were reconstituted to 1.0 OD595 nm, then diluted 1:1,000 and incubated with compounds 4–8 at the indicated concentrations (that is, concentrations matching the IC50 values in A. fumigatus for all compounds, except for compounds 3 and 5a where a top concentration of 20 μM was used). Cell viability was monitored over 16 h by measuring OD600 nm in a spectrophotometer. Data is represented as % of cell viability as means from at least two independent experiments with n=3.

[3] = system: Escherichia coli (ATCC 25922); test: as above; assay type: cell-based; details: 16 h incubation with peptide at its respective IC50 concentration (A. fumigatus), OD600 nm, n=3
Protocol: as §2

[4] = system: Klebsiella pneumoniae (ATCC BAA1706); test: as above; assay type: cell-based; details: 16 h incubation with peptide at its respective IC50 concentration (A. fumigatus), OD600 nm, n=3
Protocol: as §2

[5] = Chemical stability in human bronchoalveolar lavages; assay type: in vitro ADME; details: human bronchoalveolar lavage from patients with acute respiratory distress syndrome, 37 °C; for remaining at 1 h, 20 μM / remaining at 3 h, 20 μM / remaining at 24 h, 20 μM: HPLC-UV (C18); for remaining at 1 h, 20 μM: read-out: chemical stability in human bronchoalveolar lavage, percentage at 1 h (measure not given); for remaining at 3 h, 20 μM: read-out: chemical stability in human bronchoalveolar lavage, percentage at 3 h (measure not given); for remaining at 24 h, 20 μM: read-out: chemical stability in human bronchoalveolar lavage, percentage at 24 h (measure not given)
Protocol: Peptides 5 and 8 (20 μM) were dissolved in human bronchoalveolar lavage samples (total volume: 100 μl) and incubated at 37 °C for the indicated times. Samples were injected into an high-performance liquid chromatography Agilent 1100 separations module connected to a UV detector with a Discovery C18 column (5 μm, 4.6 × 50 mm). Matrix-assisted laser desorption/ionization data was recorded on a Bruker Ultraflex mass spectrometer using sinapinic acid as the matrix.
Supplementary Figure 9 . Stability of cyclic (8) and linear (5) mono-BODIPY labelled peptid es in human bronchoalveolar lavage samples from p atients w ith acute respiratory distress synd rome.
Pept ides were incubat ed in hum an bronchoalveolar lavage sam ples at 37 °C and anal ysed b y H PLC at the tim e points indicated. Arrows point at the peak s corresponding to the intact linear peptide.
as §1

[6] = system: human lung A549 epithelial cells; test: MTT cell viability assay; assay type: cell-based; details: MTT, 0, 1.25, 2.5, 5 and 10 μM, 4 h at 37 °C, absorbance 570 nm, means ± s.d., n=4
Protocol: Cell viability was determ ined with a TACS® MTT Cell Proliferation assa y (Trevigen) according to the m anufacturer’s instructions. Briefly, hum an lung A549 epithelial cells were plated on 96-well plates the day before the experim ent, reaching 90- 95% confluence on the day of the experim ent. T he peptide 8 was added to the cells at different concentrations (0, 1.25, 2.5, 5 and 10 µM) and incubated at 37 °C for 4 h. After 4 h, cells were washed, treated according to the m anufacturer’s instructions and their absorbance values (570 nm) were m easured in a Syner gy HT spectrophotom eter (Biotek ). Cell viabilit y data was norm alised to the proliferation of cells without addition of the peptide 8.
Supplementary Figure 17. Cell proliferation assays. Viabilit y of hum an lung A549 epithelial cells after incubation with different concentrations of the peptide 8 . D ata r epresented as m eans ± s.d. (n=4).
as §1

human RBCs = test: Determination of haemolytic activity; assay type: cell-based; details: red cells of human, 1 h
Protocol: Erythrocytes were isolated from freshly drawn, anticoagulated human blood and diluted in PBS (1:5). An amount of 50 μl of erythrocyte suspension was added to 50 μl of compounds 4–8 at the indicated concentrations (that is, concentrations matching the IC50 values in A. fumigatus for all compounds, except for compounds 3 and 5a where a top concentration of 20 μM was used). 0.2% Triton X-100 was used as positive control and PBS as negative control. The plate was incubated at 37 °C for 1 h, each well was diluted with 150 μl of PBS and the plate was centrifuged at 1,200g for 15 min. A total of 100 μl of the supernatant from each well was transferred to a fresh plate, and the absorbance at 350 nm was measured in a microplate reader. Data is represented as % of cell viability as means from three independent experiments with n=3.
Supplementary Figure 6. Haemolytic activity of peptides 4-8 in human red blood cells (RBCs).
Peptides 4-8 and T riton X-100 (0.2% as positive control) were incubated with hum an RBCs at 37 °C and their viabilit y was assessed after 1 h. Data repres ented as m eans ± s.d. (n=3). *** for p < 0.001 was determ ined as a statis tically s ignificant difference between the c ell viabilities in PBS (phosphate buffer saline) and in T riton X-100.
as §1

[7] = conidia 5 × 10^5 cells/ml in 10% Vogel's medium, 24 h at 37 °C, OD610 nm, four parameter logistic regression, means±s.e.m., n=3, read-out: IC50 in Aspergillus fumigatus

Row | Compound | IC50 [1, 7] [µM] | cell viability, Pseudomonas aeruginosa [2] [%] | cell viability, Escherichia coli [3] [%] | cell viability, Klebsiella pneumoniae [4] [%] | further results
1 | CC1=CC(C)=[N+]2C1=C(c1cccc(-c3[nH]c4ccccc4c3C[C@H](NC(=O)[C@H](C)NC(=O)[C@H](C)NC(=O)[C@H](C)N)C(=O)N[C@@H](Cc3ccccc3)C(=O)N[C@@H](Cc3c[nH]c4ccccc34)C(N)=O)c1)c1c(C)cc(C)n1[B-]2(F)F [5a] (H-AAA[X1]FW-NH2) |  |  |  |  | activity / affinity in A. fumigatus, in words [1]: poor activity
2 | CC1=CC(C)=[N+]2C1=C(c1cccc(-c3[nH]c4ccccc4c3C[C@H](NC(=O)[C@H](CCCCN)NC(=O)[C@H](CCCCN)NC(=O)[C@@H](N)CCCNC(=N)N)C(=O)N[C@@H](C)C(=O)N[C@@H](C)C(N)=O)c1)c1c(C)cc(C)n1[B-]2(F)F [5b] (H-RKK[X1]AA-NH2) |  |  |  |  | activity / affinity in A. fumigatus, in words [1]: reduced activity
3 | CC1=CC(C)=[N+]2C1=C(c1cccc(-c3[nH]c4ccccc4c3C[C@H](NC(=O)[C@H](CCCCN)NC(=O)[C@H](CCCCN)NC(=O)[C@@H](N)CCCNC(=N)N)C(=O)N[C@@H](Cc3ccccc3)C(=O)N[C@@H](Cc3c[nH]c4ccccc34)C(N)=O)c1)c1c(C)cc(C)n1[B-]2(F)F [compound 5] (H-RKK[X1]FW-NH2) | 3.6 ± 0.1 | > 99 | 94 | 87 | remaining at 1 h, 20 μM ([5]; peptide 20 μM): 49%; remaining at 3 h, 20 μM ([5]; peptide 20 μM): 2%; remaining at 24 h, 20 μM ([5]; peptide 20 μM): < 1%; half-life at 20 μM ([5]; peptide 20 μM, HPLC-UV): < 1 h
4 | CC1=CC(C)=[N+]2C1=C(c1cccc(-c3[nH]c4ccccc4c3C[C@H](NC(=O)[C@H](Cc3ccccc3)NC(=O)[C@H](Cc3c[nH]c4ccccc34)NC(=O)[C@H](CCCCN)NC(=O)[C@H](CCCCN)NC(=O)[C@@H](N)CCCNC(=N)N)C(N)=O)c1)c1c(C)cc(C)n1[B-]2(F)F [compound 6] (H-RKKWF[X1]-NH2) | 3 ± 0.1 | > 99 | 95 | 96 | 
5 | CC1=CC(C)=[N+]2C1=C(c1cccc(-c3[nH]c4ccccc4c3C[C@H](NC(=O)[C@H](Cc3ccccc3)NC(=O)[C@H](Cc3c(-c4cccc(C5=C6C(C)=CC(C)=[N+]6[B-](F)(F)n6c(C)cc(C)c65)c4)[nH]c4ccccc34)NC(=O)[C@H](CCCCN)NC(=O)[C@H](CCCCN)NC(=O)[C@@H](N)CCCNC(=N)N)C(N)=O)c1)c1c(C)cc(C)n1[B-]2(F)F [compound 7] | 2.5 ± 0.1 | > 99 | 95 | 93 | 
6 | CC1=CC(C)=[N+]2C1=C(c1cccc(-c3[nH]c4ccccc4c3C[C@@H]3NC(=O)[C@H](CCCCN)NC(=O)[C@H](CCCCN)NC(=O)[C@H](CCCNC(=N)N)NC(=O)CNC(=O)[C@H](Cc4c[nH]c5ccccc45)NC(=O)[C@H](Cc4ccccc4)NC3=O)c1)c1c(C)cc(C)n1[B-]2(F)F [compound 8] (cyclo(FWGRKK[X1])) | 2 ± 0.1 | > 99 | 96 | 94 | affinity for fungal cells compared with peptide 5 ([1]; comparison of IC50 values in A. fumigatus): around two-fold enhanced affinity; cytotoxicity in human lung A549 epithelial cells, in words [6]: No significant differences; also recorded: no cytotoxicity; quantum yield in phospholipid membranes: 30%; stability in human bronchoalveolar lavages, in words ([5]; after 24 h, 20 μM, HPLC-UV): remained intact; remaining at 1 h, 20 μM ([5]; peptide 20 μM): 99%; remaining at 3 h, 20 μM ([5]; peptide 20 μM): 99%; remaining at 24 h, 20 μM ([5]; peptide 20 μM): 95%
7 | RKKWFW-NH2 [compound 4, reference compound] |  | > 99 | > 99 | 93 | IC50 ([1]; strain CEA10, 24 h): 7.9 ± 0.2 µM; cell viability, human RBCs (haemolysis) (human RBCs): 99%
